The structures appear in SMILES notation. Converted amounts (≈) assume the structure as drawn. Like-named read-outs stand apart in the source and are kept apart here.

The text below walks through data of patent US20130338190A1, “PHARMACEUTICALLY ACCEPTABLE SALT OF (E)-N-[4-[[3-CHLORO-4-(2-PYRIDYLMETHOXY)PHENYL]AMINO]-3-CYANO-7-ETHOXY-6-QUINOLYL]-3-[(2R)-1-METHYLPYRROLIDIN-2-YL]PROP-2-ENAMIDE, PREPARATION METHOD THEREOF, AND MEDICAL USE THEREOF” (priority 2011, published 2013).

One series has as its target HER-2 kinase (Homo sapiens, UniProt P04626). Kind of series: HER-2 kinase activity assay (time-resolved fluorescence). Particulars: table of the HER-2 kinase activity assay; human-derived recombinant HER-2 kinase, 20 μM ATP, 25° C., 45 minutes; read-out: IC50 (HER-2/SK-BR-3). It is filed as biochemical. On the procedure:
The in vitro HER-2 kinase activity was tested by the following assay.
The following assay was used to determine the activity of the compounds of the present invention for inhibiting HER-2 kinase. The half maximal inhibitory concentration IC50 (the concentration of the test compound showing 50% inhibition of the enzyme activity) of each compound was determined by incubating several different concentrations of the test compounds with a specific enzyme and substrate. […] The HER-2 kinase activity was determined by using a time-resolved fluorescence method.

The nature of series [1]: Solubility assay. It is filed as physicochemical. On the procedure: According to the conventional solubility measurement, the solubility of a compound of formula (I) and salts thereof was determined in three different systems: water, physiological saline and methanol.
Series [2] can be described thus: Pharmacokinetics assay in rats (LC/MS/MS of plasma). It is filed as in vivo, Sprague Dawley (SD) rats. As to conditions: rat; for Vd/F: read-out: Vz/F. The procedure:
The rats were used as test animals. The compound of formula (I) and other salts thereof were administrated intragastrically, and a maleate salt of the compound of formula (I) was injected into the tail vein to determine the drug concentration in plasma at different time points by an LC/MS/MS method. The pharmacokinetic behavior, characteristics and the oral absolute bioavailability of the present compounds were studied and evaluated in rats. […] 28 healthy adult Sprague Dawley (SD) rats, half male and half female, were purchased from SINO-BRITSH SIPPR/BK LAB. ANIMAL LTD., CO, License number: SCXK (Shanghai) 2008-0016, and divided into 7 groups (4 rats in each group). The intravenous injection group: a suitable amount of compounds was weighed, dissolved in DMSO and diluted with normal saline to the final volume. […] healthy adult SD rats, half male and half female, were divided into 7 groups (4 rats in each group). […] For the intravenous injection group, blood samples (0.2 mL) were taken from orbital sinus before administration and at 2 min, 15 min, 30 min, 1.0 […] and 36.0 h after administration, stored in heparinized tubes and centrifuged for 10 minutes at 3,500 rpm to separate blood plasma. The plasma samples were stored at -20° C. For the intragastrical administration group, blood samples were taken before administration and at 0.5, 1.0, 2.0, 3.0, 4.0, 6.0, 8.0, 12.0, 24.0 and 36.0 hours after administration. The method to treat the samples was the same as with the intravenous injection group. The rats were fed 2 hours after administration.

The subject of series [3] is human carcinoma SK-BR-3 cells, which have high expression of HER-2. As to the kind of experiment: HER-2 cell activity assay (SRB, 96 hours). It is filed as cell-based. The text has this:
The following in vitro assay was to determine the activity of the compounds of the present invention for inhibiting the proliferation of human carcinoma SK-BR-3 cells, which have high expression of HER-2.
The following in vitro assay was to determine the activity of the test compounds for inhibiting the angiogenesis and proliferation of cancer cells, which have high expression of HER-2. The activity is represented by the IC50 value. The general procedure of the assay was as follows: the cancer cells line SK-BR-3 highly expressing HER-2 was chosen and the cells were seeded in a 96-well cell culture plate at a suitable density. The cells then were incubated in a carbon dioxide incubator until they reached 60% confluence. Then, the cell culture medium was replaced by fresh medium with the test compounds at various concentrations (6 to 7 concentrations). The cells were put back in the incubator and cultured continuously for 96 hours. The activity of the test compounds for inhibiting the cell proliferation was determined by using a Sulforhodamine B (SRB) method. IC50 values of test cells were calculated by the rate of inhibition at various concentrations of the test compounds.

Series [4] in a line: Solubility assay. It is filed as physicochemical. This is another data set of the same source.
Series [5] deals with human epidermoid carcinoma A431 cells, which have high expression of EGFR. Kind of series: EGFR cell proliferation inhibition assay (SRB, 72 hours). It is filed as cell-based. Particulars: Homo sapiens, A-431, 72 h, read-out: IC50 (EGFR/A431). On the procedure:
The activity is represented by the IC50 value. The general procedures of the assay were as follows: the cancer cells A431 highly expressing EGFR were chosen and seeded in a 96-well cell culture plate at a suitable density (e.g., 5000 cells/mL medium). The cells were then incubated in a carbon dioxide incubator until they reached 85% confluence. Then, the cell culture medium was replaced by fresh medium containing the test compounds with serial dilutions (general 6 to 7 concentrations). The cells were put back in the incubator and cultured continuously for 72 hours. The activity of the test compounds for inhibiting the cell proliferation was determined by using a Sulforhodamine B (SRB) method. IC50 values were calculated by the rate of inhibition at various concentrations of the test compounds.

Where [6] appears, read: both sexes, Sprague-Dawley, plasma, iv, 25 mg/kg, vein (tail vein injection).
Setting [7] is: both sexes, Sprague-Dawley, plasma, iv, 25 mg/kg, vein (tail vein injection), read-out: AUC0-t.
The mark [8] stands for this setting: both sexes, Sprague-Dawley, plasma, iv, 25 mg/kg, vein (tail vein injection), read-out: MRT.
[9] abbreviates: vein (tail vein injection), 25 mg/kg.
Setting [10] is: both sexes, Sprague-Dawley, plasma, po, 25 mg/kg, gavage.
Setting [11] is: both sexes, Sprague-Dawley, plasma, po, 25 mg/kg, gavage, read-out: AUC0-t.
Setting [12] is: both sexes, Sprague-Dawley, plasma, po, 25 mg/kg, gavage, read-out: Cmax.
[13] abbreviates: both sexes, Sprague-Dawley, plasma, po, 25 mg/kg, gavage, read-out: MRT.
[14] abbreviates: vein (tail vein injection), 25 mg/kg, dimaleate.
Setting [15] is: gavage, 25 mg/kg, dimethanesulfonate.
The mark [16] stands for this setting: vein (tail vein injection), 25 mg/kg, dimethanesulfonate.
[17] abbreviates: gavage, 25 mg/kg, trimethanesulphonate.
[18] abbreviates: vein (tail vein injection), 25 mg/kg, trimethanesulphonate.

Chain of HER-2 kinase (P04626 23-1255): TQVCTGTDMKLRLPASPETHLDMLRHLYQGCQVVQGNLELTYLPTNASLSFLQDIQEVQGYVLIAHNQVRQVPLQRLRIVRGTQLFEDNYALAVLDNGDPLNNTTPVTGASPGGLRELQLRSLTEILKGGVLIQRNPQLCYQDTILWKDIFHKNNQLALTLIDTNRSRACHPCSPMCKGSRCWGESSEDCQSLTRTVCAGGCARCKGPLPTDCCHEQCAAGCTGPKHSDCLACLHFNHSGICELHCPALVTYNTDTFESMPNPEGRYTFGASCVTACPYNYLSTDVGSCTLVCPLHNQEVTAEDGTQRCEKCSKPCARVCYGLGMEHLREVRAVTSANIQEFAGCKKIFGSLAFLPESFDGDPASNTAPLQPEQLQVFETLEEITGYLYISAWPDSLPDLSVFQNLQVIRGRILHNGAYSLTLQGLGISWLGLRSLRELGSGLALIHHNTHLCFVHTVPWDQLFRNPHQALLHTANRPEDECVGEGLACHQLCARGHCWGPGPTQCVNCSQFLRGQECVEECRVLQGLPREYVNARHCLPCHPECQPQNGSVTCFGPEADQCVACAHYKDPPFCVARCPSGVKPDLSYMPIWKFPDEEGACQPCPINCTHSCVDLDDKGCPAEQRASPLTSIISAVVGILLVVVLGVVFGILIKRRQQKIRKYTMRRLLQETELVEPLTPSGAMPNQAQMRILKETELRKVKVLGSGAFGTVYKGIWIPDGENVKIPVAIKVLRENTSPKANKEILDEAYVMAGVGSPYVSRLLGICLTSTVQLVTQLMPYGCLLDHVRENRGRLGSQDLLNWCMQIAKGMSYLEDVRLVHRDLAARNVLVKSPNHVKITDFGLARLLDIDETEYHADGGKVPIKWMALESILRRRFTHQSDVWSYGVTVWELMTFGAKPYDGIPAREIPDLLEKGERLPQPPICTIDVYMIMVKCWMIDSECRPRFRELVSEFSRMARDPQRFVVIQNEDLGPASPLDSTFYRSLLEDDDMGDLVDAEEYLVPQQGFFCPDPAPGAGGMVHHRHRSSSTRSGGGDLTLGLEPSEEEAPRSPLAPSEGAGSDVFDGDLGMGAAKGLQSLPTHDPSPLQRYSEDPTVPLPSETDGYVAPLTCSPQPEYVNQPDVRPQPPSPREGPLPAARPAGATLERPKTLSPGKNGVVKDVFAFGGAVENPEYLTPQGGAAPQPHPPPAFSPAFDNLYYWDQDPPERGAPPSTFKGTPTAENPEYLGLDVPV

For the molecule `CCOc1cc2ncc(C#N)c(Nc3ccc(OCc4ccccn4)c(Cl)c3)c2cc1NC(=O)/C=C/[C@H]1CCCN1C.O=C(O)/C=C\C(=O)O` [Example 1, (E)-N-[4-[[3-chloro-4-(2-pyridylmethoxy)phenyl]amino]-3-cyano-7-ethoxy-6-quinolyl]-3-[(2R)-1-methylpyrrolidin-2-yl]prop-2-enamide maleate], the IC50 at HER-2 kinase came to 53 nM. Besides, the solubility in “Solubility assay [1]” (physiological saline, saline or isotonic, physiological saline, read-out: Solubility Value, Physiological saline) worked out at 190 µg/mL. The molecule also showed a half-life in series [2] (setting [6]) of 295 ± 36 min. In series [2] (setting [7]), the AUC(0-t) was found to be 222 ± 77 µg·h/mL. Moreover, in series [2] (setting [8]), the MRT was determined as 5.5 ± 0.99 h. Further, in series [2] (gavage, 25 mg/kg, maleate), the AUC(0-t) was 104.58 ± 56.54 µg·h/mL, the Cmax was 8.99 ± 4.87 µg/mL, the MRT is reported as 8.93 ± 1.39 h and the t1/2 was found to be 4.4 ± 1.3 h. The “F (%)” value in series [2] (oral absolute bioavailability, 25 mg/kg (calculated by the base part), maleate) was 47.1%. For the same molecule, the IC50 in series [3] (read-out: IC50 (HER-2/SK-BR-3), maleate) came out at 64 nM. Also, the “Solubility Value, 0.1M Hydrochloric acid” value in “Solubility assay [4]” (maleate) came to 23.33 mg/mL. For the same molecule, the “Solubility Value, Water” value in “Solubility assay [4]” (water, maleate) stood at 12.49 mg/mL.
As to `CCOc1cc2ncc(C#N)c(Nc3ccc(OCc4ccccn4)c(Cl)c3)c2cc1NC(=O)/C=C/[C@H]1CCCN1C` [Example 1f, (E)-N-[4-[[3-chloro-4-(2-pyridylmethoxy)phenyl]amino]-3-cyano-7-ethoxy-6-quinolyl]-3-[(2R)-1-methylpyrrolidin-2-yl]prop-2-enamide], the IC50 at HER-2 kinase was 65 nM. Besides, in “Solubility assay [1]”, the “Solubility Value, Water” value was determined as 0.008 mg/mL (≈ 13.7 µM). In addition, the AUC(0-t) in series [2] (gavage, 25 mg/kg) came out at 52.81 ± 23.59 µg·h/mL. The “F (%)” value in series [2] (oral absolute bioavailability, 25 mg/kg (calculated by the base part)) is 42.2%. In series [2] (setting [9]), this molecule gave an AUC(0-t) of 125.4 ± 38.95 µg·h/mL, an MRT of 4.22 ± 0.71 h and a t1/2 of 5.25 ± 2.01 h. Moreover, the IC50 in series [3] (Homo sapiens, SK-BR-3, 96 h, read-out: IC50 (HER-2/SK-BR-3)) came out at 59 nM. In “Solubility assay [4]”, the “Solubility Value, 0.1M Hydrochloric acid” value stood at 1.43 mg/mL (≈ 2450 µM) and the “Solubility Value, Physiological saline” value was found to be 0.0026 mg/mL. In addition, the “solubility in conventional solvents (in words)” value in “Solubility assay [4]” (conventional solvents) was “poorly soluble”.
`CCOc1cc2ncc(C#N)c(Nc3ccc(OCc4ccccn4)c(Cl)c3)c2cc1NC(=O)/C=C/[C@H]1CCCN1C.O=C(O)/C=C\C(=O)O` [Example 2, (E)-N-[4-[[3-chloro-4-(2-pyridylmethoxy)phenyl]amino]-3-cyano-7-ethoxy-6-quinolyl]-3-[(2R)-1-methylpyrrolidin-2-yl]prop-2-enamide dimaleate]: the IC50 at HER-2 kinase came out at 28 nM. The “Solubility Value, Water” value in the series “Solubility assay [1]” (dimaleate) is 1.52 mg/mL. Further, in series [2] (setting [10]), the CL/F was 4.83 mL/min/kg, the half-life is 267 ± 97.8 min and the Vd/F was 1.84 ± 1.19 L/kg. Also, the AUC(0-t) in series [2] (setting [11]) is 116 ± 67.2 µg·h/mL. Also, in series [2] (setting [12]), the Cmax came out at 10.2 ± 4.41 µg/mL. Besides, in series [2] (setting [13]), the MRT was 8.03 ± 0.99 h. Further, the bioavailability in series [2] (both sexes, Sprague-Dawley, plasma, po, 25 mg/kg, oral absolute bioavailability, 25 mg/kg (calculated by the base part)) is 48.3%. In series [2] (setting [14]), this molecule returned an MRT of 2.96 ± 0.47 h and a t1/2 of 3.74 ± 1.20 h. In addition, in series [5], the IC50 was found to be 31 nM. Besides, in the series “Solubility assay [4]” (dimaleate), the “Solubility Value, 0.1M Hydrochloric acid” value was found to be 54.88 mg/mL and the “Solubility Value, Physiological saline” value is 0.36 mg/mL.
For `CCOc1cc2ncc(C#N)c(Nc3ccc(OCc4ccccn4)c(Cl)c3)c2cc1NC(=O)/C=C/[C@H]1CCCN1C.CS(=O)(=O)O` [Example 4, (E)-N-[4-[[3-chloro-4-(2-pyridylmethoxy)phenyl]amino]-3-cyano-7-ethoxy-6-quinolyl]-3-[(2R)-1-methylpyrrolidin-2-yl]prop-2-enamide methanesulfonate], the figures for the half-life in series [2] (setting [6]) and in series [2] (setting [10]) were 226 ± 13.2 min and 220 ± 49.8 min, respectively. Also, the AUC(0-t) in series [2] (setting [7]) is 146 ± 40.4 µg·h/mL; in series [2] (setting [11]) it was 92.3 ± 37 µg·h/mL. Further, the MRT in series [2] (setting [8]) was 5.46 ± 0.48 h; in series [2] (setting [13]), 8.4 ± 0.65 h. The molecule further had a CL/F in series [2] (setting [10]) of 5.33 mL/min/kg. The Cmax in series [2] (setting [12]) is 6.92 ± 1.82 µg/mL. For the same molecule, in series [2] (setting [10]), the Vd/F was found to be 1.6 ± 0.54 L/kg. Besides, the “F (%)” value in series [2] (oral absolute bioavailability, 25 mg/kg (calculated by the base part), methanesulfonate) was 63.2%.
Consider `CCOc1cc2ncc(C#N)c(Nc3ccc(OCc4ccccn4)c(Cl)c3)c2cc1NC(=O)/C=C/[C@H]1CCCN1C.CS(=O)(=O)O` [Example 5, (E)-N-[4-[[3-chloro-4-(2-pyridylmethoxy)phenyl]amino]-3-cyano-7-ethoxy-6-quinolyl]-3-[(2R)-1-methylpyrrolidin-2-yl]prop-2-enamide dimethanesulfonate], for which, in series [2] (setting [15]), the AUC(0-t) came out at 81.53 ± 40.46 µg·h/mL, the Cmax is 7.88 ± 2.51 µg/mL, the MRT turned out to be 7.95 ± 0.61 h and the t1/2 turned out to be 3.46 ± 0.56 h. The “F (%)” value in series [2] (oral absolute bioavailability, 25 mg/kg (calculated by the base part), dimethanesulfonate) is 72.1%. In addition, in series [2] (setting [16]), the AUC(0-t) came to 112.84 ± 62.1 µg·h/mL, the MRT was found to be 4.2 ± 0.99 h and the t1/2 was 3.12 ± 0.37 h.
In series [2] (setting [17]), `CCOc1cc2ncc(C#N)c(Nc3ccc(OCc4ccccn4)c(Cl)c3)c2cc1NC(=O)/C=C/[C@H]1CCCN1C.CS(=O)(=O)O` [Example 6, (E)-N-[4-[[3-chloro-4-(2-pyridylmethoxy)phenyl]amino]-3-cyano-7-ethoxy-6-quinolyl]-3-[(2R)-1-methylpyrrolidin-2-yl]prop-2-enamide trimethanesulphonate] had an AUC(0-t) of 81.72 ± 22.16 µg·h/mL, a Cmax of 6.27 ± 1.58 µg/mL, an MRT of 8.59 ± 0.22 h and a t1/2 of 4.15 ± 0.09 h. Moreover, the “F (%)” value in series [2] (oral absolute bioavailability, 25 mg/kg (calculated by the base part), trimethanesulphonate) is recorded as 50.5%. In series [2] (setting [18]), the AUC(0-t) turned out to be 162.28 ± 55.65 µg·h/mL, the MRT is given as 4.94 ± 0.58 h and the t1/2 was 5.27 ± 0.29 h.
